System: HBV
Assay: HBV-DNA antiviral assay using HepG2.117 cells
Assay type: cell-based, genotype D HBV
Conditions: intracellular HBV DNA by qPCR, 3 days incubation
Description: The following assay procedure describes the HBV antiviral assay, using HepG2.117 cells, which carry a stably integrated genotype D HBV genome under the control of a Tet-off promoter, and intracellular HBV DNA quantification as endpoint. Cell viability is assessed in parallel by measuring the intracellular ATP content using ATPlite (Perkin Elmer).
On day 0, HepG2.117 cells (which are maintained in routine cell culture with doxycycline present in the medium at a final concentration of 1 μg/mL) were seeded in 96-well plates (white with clear bottom) at a density of 2.0×10^4 cells/well (0.1 mL/well) in medium without doxycycline to induce pgRNA transcription and subsequent formation of HBV particles. The cells were incubated at 37° C. and 5% CO2.
On day 1, medium was removed from each well, the test articles were diluted in culture medium without doxcycyline and 100 μL was added to cell culture wells (9 concentrations, 4-fold dilution). For each plate, 6 untreated (merely DMSO) wells were included. The final concentration of DMSO in the culture medium was 2%. Each plate was prepared in duplicate (one for HBV DNA extraction, one for ATPlite measurement). The cells were incubated at 37° C. and 5% CO2 for 3 days.
On day 4, cell viability was assessed using ATPlite and cell lysates were prepared for HBV DNA extraction and subsequent quantification by qPCR.
Medium was removed from each well and 100 μL of 0.33% NP-40 in H2O was added to each well. Plates were sealed, incubated at 4° C. for 5 mins, vortexed extensively and centrifuged briefly. Next, 35 μL of lysate was added to 65 μL QuickExtract DNA Extraction Solution (Epicentre) in a PCR plate for each well. PCR plate was incubated at 65° C. for 6 mins, 98° C. for 2 mins and finally cooled to 4° C. HBV DNA was then quantified by qPCR with HBV-specific primers and probes as specified in Table 1 using the Bio-Rad SSOAdvanced Universal Probes Supermix on a CFX96 machine (Bio-Rad). The PCR cycle program consisted of 95° C. for 3 mins, followed by 40 cycles at 95° C. for 10 sec and 60° C. for 30 sec.
A DNA standard was prepared by dilution of an IDT gBlock corresponding to the amplicon with concentrations ranging from 10^2 to 10^8 copies/input (i.e. per 4 μL) and used to generate a standard curve by plotting Cq values vs. HBV DNA standard concentration. The quantity of HBV DNA in each sample was determined by interpolating from the standard curve.
Cell viability was calculated as follows: % Cell viability=(luminescence value of test sample)/(average luminescence value of 2% DMSO control)×100%. HBV DNA inhibition was calculated as follows: 100−(HBV DNA copy number of test sample)/(average HBV DNA copy number of 2% DMSO control)×100%. No normalization to entecavir was required due to the excellent dynamic window of this assay. The CC50, EC50 and EC90 values were determined by dose-response curves fitted by GraphPad Prism using “log (agonist) vs. response—Variable slope”.

SMILES: CC(C)NC(=O)c1cnn2c3c(c(=O)n(-c4ccccc4)c12)CCN(C(=O)c1ccc(Cl)c(Cl)c1)C3 [Compound 16, 12-(3,4-dichlorobenzoyl)-N-isopropyl-8-oxo-7-phenyl-2,3,7,12-tetraazatricyclo[7.4.0.0^[2,6]]trideca-1(9),3,5-triene-5-carboxamide]
- EC50: > 5000 nM

SMILES: CC(C)CC(=O)Nc1cnn2c3c(c(=O)n(-c4ccccc4)c12)CCN(C(=O)c1ccc(Cl)c(Cl)c1)C3 [Compound 17, N-[12-(3,4-dichlorobenzoyl)-8-oxo-7-phenyl-2,3,7,12-tetraazatricyclo[7.4.0.0^[2,6]]trideca-1(9),3,5-trien-5-yl]-3-methylbutanamide]
- EC50: > 5000 nM

SMILES: O=C(c1ccc(Cl)c(Cl)c1)N1CCc2c(n3ncc(NCc4ccccc4)c3n(-c3ccccc3)c2=O)C1 [Compound 18, 5-(benzylamino)-12-(3,4-dichlorobenzoyl)-7-phenyl-2,3,7,12-tetraazatricyclo[7.4.0.0^[2,6]]trideca-1(9),3,5-trien-8-one]
- EC50: 500 to 5000 nM

SMILES: CC(C)CNC(=O)c1cnn2c3c(c(=O)n(-c4ccccc4)c12)CCN(C(=O)c1ccc(Cl)c(Cl)c1)C3 [Compound 19, 12-(3,4-dichlorobenzoyl)-N-isobutyl-8-oxo-7-phenyl-2,3,7,12-tetrazatricyclo [7.4.0.0^2,6] trideca-1(9),3,5-triene-5-carboxamide]
- EC50 (Hepatitis B virus, 72 h): > 5000 nM

SMILES: O=C(NCc1ccccc1)c1cnn2c3c(c(=O)n(-c4ccccc4)c12)CCN(C(=O)c1ccc(Cl)c(Cl)c1)C3 [Compound 20, N-benzyl-12-(3,4-dichlorobenzoyl)-8-oxo-7-phenyl-2,3,7,12-tetrazatricyclo [7.4.0.0^2,6] trideca-1(9),3,5-triene-5-carboxamide]
- EC50 (Hepatitis B virus, 72 h): > 5000 nM

SMILES: COc1ccc(-n2c(=O)c3c(n4ncc(NC(C)=O)c24)CN(C(=O)c2ccc(Cl)c(Cl)c2)CC3)cc1 [Compound 21, N-[12-(3,4-dichlorobenzoyl)-7-(4-methoxyphenyl)-8-oxo-2,3,7,12-tetrazatricyclo [7.4.0.0^2,6]trideca-1(9),3,5-trien-5-yl]acetamide]
- EC50: > 5000 nM

SMILES: COc1ccc(-n2c(=O)c3c(n4ncc(NC(=O)C(C)C)c24)CN(C(=O)c2ccc(Cl)c(Cl)c2)CC3)cc1 [Compound 22, N-[12-(3,4-dichlorobenzoyl)-7-(4-methoxyphenyl)-8-oxo-2,3,7,12-tetrazatricyclo [7.4.0.0^2,6]trideca-1(9),3,5-trien-5-yl]-2-methyl-propanamide]
- EC50: > 5000 nM

SMILES: COc1ccc(-n2c(=O)c3c(n4ncc(NC(=O)Cc5ccccc5)c24)CN(C(=O)c2ccc(Cl)c(Cl)c2)CC3)cc1 [Compound 23, N-[12-(3,4-dichlorobenzoyl)-7-(4-methoxyphenyl)-8-oxo-2,3,7,12-tetrazatricyclo [7.4.0.0 2,6]trideca-1(9),3,5-trien-5-yl]-2-phenyl-acetamide]
- EC50 (Hepatitis B virus, 72 h): 500 to 5000 nM

SMILES: COc1ccc(-n2c(=O)c3c(n4ncc(Cc5ccccc5)c24)CN(C(=O)c2ccc(Cl)c(Cl)c2)CC3)cc1 [Compound 24, 5-benzyl-12-(3,4-dichlorobenzoyl)-7-(4-methoxyphenyl)-2,3,7,12-tetraazatricyclo[7.4.0.0^[2,6]]trideca-1(9),3,5-trien-8-one]
- EC50: 100 to 500 nM

SMILES: COc1ccc(-n2c(=O)c3c(n4ncc(NCc5ccccc5)c24)CN(C(=O)c2ccc(Cl)c(Cl)c2)CC3)cc1 [Compound 25, 5-(benzylamino)-12-(3,4-dichlorobenzoyl)-7-(4-methoxyphenyl)-2,3,7,12-tetraazatricyclo[7.4.0.0^[2,6]]trideca-1(9),3,5-trien-8-one]
- EC50: ≤ 100 nM

SMILES: COc1ccc(-n2c(=O)c3c(n4ncc(NS(C)(=O)=O)c24)CN(C(=O)c2ccc(Cl)c(Cl)c2)CC3)cc1 [Compound 26, N-[12-(3,4-dichlorobenzoyl)-7-(4-methoxyphenyl)-8-oxo-2,3,7,12-tetrazatricyclo [7.4.0.0 2,6]trideca-1(9),3,5-trien-5-yl] methanesulfonamide]
- EC50 (Hepatitis B virus, 72 h): 500 to 5000 nM

SMILES: O=C(c1ccc(Cl)c(Cl)c1)N1CCc2c(n3ncc(Cc4ccccc4)c3n(-c3ccccc3)c2=O)C1 [Compound 27, 5-benzyl-12-(3,4-dichlorobenzoyl)-7-phenyl-2,3,7,12-tetrazatricyclo [7.4.0.0 2,6] trideca-1(9),3,5-trien-8-one]
- EC50 (Hepatitis B virus, 72 h): ≤ 100 nM

SMILES: COc1cccc(-n2c(=O)c3c(n4ncc(NCc5ccccc5)c24)CN(C(=O)c2ccc(Br)c(Cl)c2)CC3)c1 [Compound 28, 5-(benzylamino)-12-(4-bromo-3-chloro-benzoyl)-7-(3-methoxyphenyl)-2,3,7,12-tetrazatricyclo [7.4.0.0 2,6] trideca-1(9),3,5-trien-8-one]
- EC50 (Hepatitis B virus, 72 h): 100 to 500 nM

SMILES: CNC(=O)c1ccc(-n2c(=O)c3c(n4ncc(Cc5ccccc5)c24)CN(C(=O)c2ccc(Br)c(Cl)c2)CC3)cc1 [Compound 29, 4-[5-benzyl-12-(4-bromo-3-chlorobenzoyl)-8-oxo-2,3,7,12-tetraazatricyclo[7.4.0.0^[2,6]]trideca-1(9),3,5-trien-7-yl]-N-methylbenzamide]
- EC50: ≤ 100 nM

SMILES: COc1ccc(-n2c(=O)c3c(n4ncc(NC(=O)c5ccccc5)c24)CN(C(=O)c2ccc(Br)c(Cl)c2)CC3)cc1 [Compound 30, N-[12-(4-bromo-3-chloro-benzoyl)-7-(4-methoxyphenyl)-8-oxo-2,3,7,12-tetrazatricyclo [7.4.0.0 2,6]trideca-1(9),3,5-trien-5-yl] benzamide]
- EC50 (Hepatitis B virus, 72 h): 100 to 500 nM

SMILES: COc1ccc(-n2c(=O)c3c(n4ncc(NS(=O)(=O)c5ccccc5)c24)CN(C(=O)c2ccc(Br)c(Cl)c2)CC3)cc1 [Compound 31, N-[12-(4-bromo-3-chloro-benzoyl)-7-(4-methoxyphenyl)-8-oxo-2,3,7,12-tetrazatricyclo [7.4.0.0 2,6]trideca-1(9),3,5-trien-5-yl] benzenesulfonamide]
- EC50 (Hepatitis B virus, 72 h): ≤ 100 nM

SMILES: COc1ccc(-n2c(=O)c3c(n4ncc(Nc5ccccc5)c24)CN(C(=O)c2ccc(Br)c(Cl)c2)CC3)cc1 [Compound 32, 12-(4-bromo-3-chlorobenzoyl)-7-(4-methoxyphenyl)-5-(phenylamino)-2,3,7,12-tetraazatricyclo[7.4.0.0^[2,6]]trideca-1(9),3,5-trien-8-one]
- EC50: ≤ 100 nM

SMILES: COc1ccc(-n2c(=O)c3c(n4ncc(NS(=O)(=O)Cc5ccccc5)c24)CN(C(=O)c2ccc(Br)c(Cl)c2)CC3)cc1 [Compound 33, N-[12-(4-bromo-3-chloro-benzoyl)-7-(4-methoxyphenyl)-8-oxo-2,3,7,12-tetrazatricyclo [7.4.0.0 2,6]trideca-1(9),3,5-trien-5-yl]-1-phenyl-methanesulfonamide]
- EC50 (Hepatitis B virus, 72 h): 500 to 5000 nM

SMILES: CNC(=O)c1ccc(-n2c(=O)c3c(n4ncc(Cc5ccccc5)c24)CN(C(=O)c2ccc(Cl)c(Cl)c2)CC3)cc1 [Compound 34, 4-[5-benzyl-12-(3,4-dichlorobenzoyl)-8-oxo-2,3,7,12-tetrazatricyclo [7.4.0.0 2,6]trideca-1(9),3,5-trien-7-yl]-N-methyl-benzamide]
- EC50 (Hepatitis B virus, 72 h): ≤ 100 nM

SMILES: CNC(=O)c1ccc(-n2c(=O)c3c(n4ncc(Cc5ccc(OC(F)(F)F)cc5)c24)CN(C(=O)c2ccc(Br)c(Cl)c2)CC3)cc1 [Compound 35, 4-[12-(4-bromo-3-chlorobenzoyl)-8-oxo-5-[[4-(trifluoromethoxy)phenyl]methyl]-2,3,7,12-tetraazatricyclo[7.4.0.0^[2,6]]trideca-1(9),3,5-trien-7-yl]-N-methylbenzamide]
- EC50: ≤ 100 nM

SMILES: CNC(=O)c1ccc(-n2c(=O)c3c(n4ncc(Cc5ccc(OC(F)(F)F)cc5)c24)CN(C(=O)c2ccc(Cl)c(Cl)c2)CC3)cc1 [Compound 36, 4-[12-(3,4-dichlorobenzoyl)-8-oxo-5-[[4-(trifluoromethoxy)phenyl]methyl]-2,3,7,12-tetrazatricyclo [7.4.0.0 2,6]trideca-1(9),3,5-trien-7-yl]-N-methyl-benzamide]
- EC50 (Hepatitis B virus, 72 h): 100 to 500 nM

SMILES: CNC(=O)c1ccc(-n2c(=O)c3c(n4ncc(Cc5ccccc5)c24)CN(C(=O)c2ccc(Br)c(C#N)c2)CC3)cc1 [Compound 37, 4-[5-benzyl-12-(4-bromo-3-cyano-benzoyl)-8-oxo-2,3,7,12-tetrazatricyclo [7.4.0.0 2,6]trideca-1(9),3,5-trien-7-yl]-N-methyl-benzamide]
- EC50 (Hepatitis B virus, 72 h): ≤ 100 nM

Source: patent US11136321B2, “Tricyclic compounds” (ALIGOS THERAPEUTICS, INC., priority 2019, dated 2021)
